Experimental data from ChEMBL document CHEMBL6127008, “Discovery and biological evaluation of biaryl acetamide derivatives as selective and in vivo active sphingosine kinase-2 inhibitors” (Eur J Med Chem, 2024).
≈ marks a conversion by molar mass, not a printed value. Calls of active or inactive are those of the source. The rule behind the calls is not given here.

Assays:
Sphingosine kinase 2 [1] = target: T1, Sphingosine kinase 2 (Homo sapiens, UniProt Q9NRA0); assay: Inhibition of SphK2 (unknown origin) using sphingosine as substrate incubated for 30 mins in presence of ATP by ADP-Glo assay
T1 sequence (Q9NRA0 whole entry): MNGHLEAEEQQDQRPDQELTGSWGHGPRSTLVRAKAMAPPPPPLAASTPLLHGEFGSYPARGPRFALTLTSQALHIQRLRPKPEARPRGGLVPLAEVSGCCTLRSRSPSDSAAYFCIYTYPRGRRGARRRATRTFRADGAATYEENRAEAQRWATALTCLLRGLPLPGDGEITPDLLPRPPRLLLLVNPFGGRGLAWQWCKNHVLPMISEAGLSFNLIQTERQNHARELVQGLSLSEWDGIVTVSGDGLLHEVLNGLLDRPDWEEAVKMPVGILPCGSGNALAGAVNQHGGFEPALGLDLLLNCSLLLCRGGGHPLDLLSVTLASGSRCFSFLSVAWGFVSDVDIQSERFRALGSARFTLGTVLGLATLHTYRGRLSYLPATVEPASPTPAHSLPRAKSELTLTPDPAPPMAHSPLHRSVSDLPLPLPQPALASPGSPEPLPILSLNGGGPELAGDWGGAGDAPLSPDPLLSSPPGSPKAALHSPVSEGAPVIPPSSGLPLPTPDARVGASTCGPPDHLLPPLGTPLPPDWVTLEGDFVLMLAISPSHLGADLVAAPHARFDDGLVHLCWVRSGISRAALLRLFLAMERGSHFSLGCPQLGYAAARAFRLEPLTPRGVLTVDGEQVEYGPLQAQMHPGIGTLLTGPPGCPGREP

[2] = Cytotoxicity against mouse NIH3T3 cells assessed as reduction in cell proliferation incubated for 48 hrs by CCK-8 assay; format: toxicity, cell-based
HepG2 [3] = assay: cells; conditions: Homo sapiens, HepG2, 48 h
Hepa 1-6 = assay: cells; conditions: Mus musculus, Hepa1-6, 48 h
MC-38 = assay: cells; conditions: Mus musculus, MC-38, 48 h
MCF7 = assay: cells; conditions: Homo sapiens, MCF7, 48 h
Sphingosine kinase 2 [4] = target: T1, Sphingosine kinase 2; assay: Inhibition of SphK2 (unknown origin)
[5] = Aqueous solubility of compound in phosphate buffer at pH 2.0 by HPLC analysis; format: physicochemical
[6] = Aqueous solubility of compound in phosphate buffer at pH 7.4 by HPLC analysis; format: physicochemical
[7] = Aqueous solubility of compound in phosphate buffer at pH 9.0 by HPLC analysis; format: physicochemical
HepG2 [8] = assay: Downregulation of SIP level in human HepG2 cells incubated for 48 hrs by SIP competitive ELISA method; format: functional, cell-based; conditions: dose 0-60 µM
HepG2 [9] = assay: Upregulation od SPH level in human HepG2 cell incubated for 48 hrs by SPH competitive ELISA method; format: functional, cell-based; conditions: dose 0-60 µM
Sphingosine kinase 1 = Sphingosine kinase 1 (Homo sapiens, UniProt Q9NYA1); assay: Inhibition of SphK1 (unknown origin)
Sphingosine kinase 1, sequence (Q9NYA1 whole entry): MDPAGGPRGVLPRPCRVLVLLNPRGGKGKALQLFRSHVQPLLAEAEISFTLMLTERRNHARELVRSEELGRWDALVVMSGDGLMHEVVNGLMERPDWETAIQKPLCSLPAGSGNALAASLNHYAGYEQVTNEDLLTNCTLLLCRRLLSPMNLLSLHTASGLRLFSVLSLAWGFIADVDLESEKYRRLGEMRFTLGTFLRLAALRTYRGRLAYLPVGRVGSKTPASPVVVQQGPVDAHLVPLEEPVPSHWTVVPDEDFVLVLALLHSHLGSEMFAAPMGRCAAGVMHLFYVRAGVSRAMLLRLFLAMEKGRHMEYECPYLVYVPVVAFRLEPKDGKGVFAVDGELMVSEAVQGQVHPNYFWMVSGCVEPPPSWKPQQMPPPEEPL

HepG2 [10] = assay: Induction of apoptosis in human HepG2 cells assessed as viable cells at 5 uM incubated for 48 hrs by Annexin V/FITC-PI staining based flow cytometry (reference value: 91.15%); format: functional; conditions: read-out: Activity
HepG2 [11] = assay: Induction of apoptosis in human HepG2 cells assessed as early apoptotic cells at 5 uM incubated for 48 hrs by Annexin V/FITC-PI staining based flow cytometry (reference value: 1.98%); format: functional
HepG2 [12] = assay: Induction of apoptosis in human HepG2 cells assessed as late apoptotic cells at 5 uM incubated for 48 hrs by Annexin V/FITC-PI staining based flow cytometry (reference value: 3.32%); format: functional
HepG2 [13] = assay: Induction of apoptosis in human HepG2 cells assessed as necrotic cells at 5 uM incubated for 48 hrs by Annexin V/FITC-PI staining based flow cytometry (reference value: […]); format: functional
HepG2 [14] = assay: Induction of apoptosis in human HepG2 cells assessed as viable cells at 20 uM incubated for 48 hrs by Annexin V/FITC-PI staining based flow cytometry (reference value: 91.15%); format: functional; conditions: read-out: Activity
HepG2 [15] = assay: Induction of apoptosis in human HepG2 cells assessed as early apoptotic cells at 20 uM incubated for 48 hrs by Annexin V/FITC-PI staining based flow cytometry (reference value: 1.98%); format: functional
HepG2 [16] = assay: Induction of apoptosis in human HepG2 cells assessed as late apoptotic cells at 20 uM incubated for 48 hrs by Annexin V/FITC-PI staining based flow cytometry (reference value: 3.32%); format: functional
HepG2 [17] = assay: Induction of apoptosis in human HepG2 cells assessed as necrotic cells at 20 uM incubated for 48 hrs by Annexin V/FITC-PI staining based flow cytometry (reference value: […]); format: functional
HepG2 [18] = assay: Induction of apoptosis in human HepG2 cells assessed as viable cells at 50 uM incubated for 48 hrs by Annexin V/FITC-PI staining based flow cytometry (reference value: 91.15%); format: functional; conditions: read-out: Activity
HepG2 [19] = assay: Induction of apoptosis in human HepG2 cells assessed as early apoptotic cells at 50 uM incubated for 48 hrs by Annexin V/FITC-PI staining based flow cytometry (reference value: 1.98%); format: functional
HepG2 [20] = assay: Induction of apoptosis in human HepG2 cells assessed as late apoptotic cells at 50 uM incubated for 48 hrs by Annexin V/FITC-PI staining based flow cytometry (reference value: 3.32%); format: functional
HepG2 [21] = assay: Induction of apoptosis in human HepG2 cells assessed as necrotic cells at 50 uM incubated for 48 hrs by Annexin V/FITC-PI staining based flow cytometry (reference value: […]); format: functional
HepG2 [22] = assay: Inhibition of cell migration in human HepG2 cells assessed as scratch healing incubated for 24 to 48 hrs by wound healing assay; format: functional, cell-based; conditions: dose 10-30 µM, time lower 24.0 hrs, time upper […]
Mus musculus = assay: In vivo inhibition SphK2 in female C57BL/6j mouse assessed as decrease in plasma SIP level at 10 to 30 mg/kg, ip measured after 4 hrs by SIP competitive ELISA method; format: functional, organism-based; conditions: dose 10-30 mg/kg
HepG2 [23] = assay: Induction of cell cycle arrest in human HepG2 cells assessed as accumulation of cell at G2 phase at 0 to 50 uM incubated for 48 hrs by PI staining based flow cytometric analysis; format: functional; conditions: dose 0-50 µM

Structure (SMILES) | IC50 (HepG2 [3]) [µM] | IC50 (Hepa 1-6) [µM] | IC50 (MC-38) [µM] | IC50 (MCF7) [µM] | IC50 at 48 h [2] [µM] | also measured
CS(=O)(=O)c1ccc(-c2sc(NS(=O)(=O)c3ccc(Br)cc3)nc2-c2ccccc2)cc1 | – | – | – | – | – | IC50 (Sphingosine kinase 2 [4]): > 10 µM
O=C(Cc1ccc(-c2ccc(OCc3ccc(Cl)c(Cl)c3)nc2)cc1)N1CCC(O)CC1 | > 100 | 59.2 | 16.4 | 36.3 | > 100 | solubility [5]: 11.6 µM (≈ 5.48 µg/mL); solubility [6]: 183 µM (≈ 86.5 µg/mL); solubility [7]: 59.6 µM (≈ 28.1 µg/mL)
NC(=O)[C@@H]1CCCN1C(=O)Cc1ccc(-c2ccc(OCc3ccc(Cl)cc3)nc2)cc1 | 34.4 | 27.2 | 40.5 | 25.4 | > 100 | –
CCCCCOc1ccc2cc(-c3noc([C@@H]4[C@@H](O)CCN4C(=N)N)n3)ccc2c1 | – | – | – | – | – | IC50 (Sphingosine kinase 2 [1]): 1.5 µM
CCCCCCCCc1ccc(CC[C@](N)(CO)COC)cc1 | – | – | – | – | – | Ki (Sphingosine kinase 1): 50 µM
NC(=O)[C@@H]1CCCN1C(=O)Cc1ccc(-c2ccc(OCc3ccccc3)nc2)cc1 | > 100 | 66.3 | > 100 | > 100 | > 100 | –
O=C(Cc1ccc(-c2cnc(OCc3ccc(Cl)cc3)cn2)cc1)N1CCC[C@H]1CO | 46.4 | 57.4 | > 100 | > 100 | > 100 | –
NC(=O)[C@@H]1CCCN1C(=O)Cc1ccc(-c2ccc(OCc3ccc(Cl)c(Cl)c3)nc2)cc1 | 67.9 | 37.5 | > 100 | 32.7 | > 100 | –

Further compounds by falling IC50 (HepG2 [3]), results first:

IC50 (HepG2 [3]) [µM] | IC50 (Hepa 1-6) [µM] | IC50 (MC-38) [µM] | IC50 (MCF7) [µM] | Structure (SMILES) | IC50 at 48 h [2] [µM] | also measured
27.2 | 49.1 | 57.4 | 53.4 | O=C(Cc1ccc(-c2ccc(OCc3ccc(Cl)cc3)nc2)cc1)N1CCC[C@H]1CO | > 100 | –
25.6 | 41.9 | 34.6 | 33.5 | O=C(NCc1ccncc1)C12CC3CC(C1)CC(c1ccc(Cl)cc1)(C3)C2 [ABC-294640] | > 100 | IC50 (Sphingosine kinase 2 [1]): 11.4 µM
25.4 | 46.1 | 20.9 | 14.7 | O=C(Cc1ccc(-c2ccc(OCc3ccc(Cl)c(Cl)c3)nc2)cc1)N1CCC[C@H]1CO | > 100 | solubility [5]: 6.87 µM (≈ 3.24 µg/mL); solubility [6]: 197 µM (≈ 92.6 µg/mL); solubility [7]: 46.9 µM (≈ 22.1 µg/mL); viability at 5 µM (HepG2 [10]): 85.7%; Activity (HepG2 [11]): 0.93%; Activity (HepG2 [12]): 6.61%; Activity (HepG2 [13]): 6.77%; viability at 20 µM (HepG2 [14]): 82.9%; Activity (HepG2 [15]): 1.46%; Activity (HepG2 [16]): 11.01%; Activity (HepG2 [17]): 4.62%; viability at 50 µM (HepG2 [18]): 67.6%; Activity (HepG2 [19]): 11.1%; Activity (HepG2 [20]): 10.09%; Activity (HepG2 [21]): 11.19%; Activity (HepG2 [8]): Dose-Dependent Effect; Activity (HepG2 [9]): Dose-Dependent Effect; Activity (HepG2 [22]): Dose-Dependent Effect; Activity (Mus musculus): Active; Activity (HepG2 [23]): Active
17.6 | 26.2 | 36.3 | 32.1 | O=C(Cc1ccc(-c2cnc(OCc3ccc(C(F)(F)F)cc3)cn2)cc1)N1CCC[C@H]1CO | > 100 | solubility [5]: 38.6 µM (≈ 18.2 µg/mL); solubility [6]: 164 µM (≈ 77.5 µg/mL); solubility [7]: 60.4 µM (≈ 28.5 µg/mL); Activity (HepG2 [8]): Dose-Dependent Effect; Activity (HepG2 [9]): Dose-Dependent Effect
